Laboratory results published in publication PMC12333011, “Selective Modulation of Trk Receptors by Cyclo-Organopeptides” (ACS Chemical Neuroscience, 2025).
One block for each molecule: values may come before it. Square brackets hold non-standard residues; d marks the D form.

Experiments:
[1] = system: NIH3T3-TrkC cells; conditions: for activity class in cell survival assay, TrkC: NIH3T3-TrkC cells, 50 μM compound, with or without 0.2 nM NT-3, 48-72 h
Experimental: (§1) Throughout, compounds were tested at 50 μM in TrkA- and C-expressing cells and 0.4 μM in TrkB-expressing cells. […] Samples were tested for promoting cell survival in the absence of NTs (agonism) or in the presence of suboptimal concentrations of NTs whose loops they were designed to mimic (NT potentiation).
Cell Survival Compound Screen
(§2) Cells were seeded at a density of 2000 cells per well. Cells were incubated in complete media for 24
(§3) hours. The media was aspirated, the cells washed twice with Dulbecco’s Phosphate Buffered Saline,
(§4) and the media was replaced with serum-free media to induce apoptosis unless otherwise halted.
(§5) Compound was added to cells (50 μM compound to HeLa-TrkA and NIH3T3-TrkC cells, 0.4 μM for
(§6) HEK293-TrkB) alone (agonism) or in the presence of suboptimal neurotrophin (~25 to 30% survival,
(§7) 0.2 nM NGF, 0.6 nM BDNF, or 0.2 nM NT3 for TrkA, B, or C expressing cells respectively). Cell
(§8) survival was measured via alamarBlue assay after 48-72 hours to determine cell viability. Data was
(§9) normalized to DMSO treatment (0%) and optimal neurotrophin (100%, 2.0 nM NGF, 1.0 nM BDNF,
(§10) 2.0 nM NT-3 for TrkA, B, or C expressing cells, respectively).
Cell Survival of NIH3T3-TrkC Cells
NIH3T3-TrkC cells were treated with 50 μM compound with or without suboptimal (0.2 nM) levels of
NT-3 and cell survival was analyzed after 48-72 hours by the alamarBlue assay. Data was
normalized to DMSO (0%) and 2.0 nM NT-3 (100%). Data is represented as the average of 3-6
(§11) points +/- standard deviation from the mean.
Cell Survival Dose Response
(§12) with a serial dilution of the compound in serum free media with or without suboptimal neurotrophin
(§13) and incubated for 48-72 hours, after which an alamarBlue assay was done to determine cell viability.
(§14) Cell viability was normalized to DMSO (0%) and optimal neurotrophin (100%), depending on cell type.
(§15) EC50 was calculated in GraphPad Prism 10.2 using the dose response “[agonist] vs response –
(§16) Variable slope (four parameters)” function. Data is presented as the mean +/- standard deviation of
an experiment with 3-6 replicates.

[2] = system: dry eye disease (desiccating stress to the eye); conditions: summarised from published work, ref number not given, cited from earlier work
Source text: All of the data for these in vivo assays is now published , and will only be summarized here. […] This negative result is surprising because D3 is a potentiator of NGF in TrkA transfectants.

[3] = system: HeLa-TrkA cells; conditions: for activity class in cell survival assay, TrkA: HeLa-TrkA cells, 50 μM compound, with or without 0.2 nM NGF, 48-72 h
Experimental: as §1, §2, §3, §4, §5, §6, §7, §8, §9, §10
HeLa-TrkA cells were treated with 50 μM compound with or without suboptimal (0.2 nM) levels of
NGF and cell survival was analyzed after 48-72 hours by the alamarBlue assay. Data was
normalized to DMSO (0%) and 2.0 nM NGF (100%). Data is represented as the average of 3-6
as §11, §12, §13, §14, §15, §16
an experiment with 3-6 replicates.

[4] = system: HEK293-TrkB cells; conditions: for shape of dose-response curve, cell survival: HEK293-TrkB cells with 0.6 nM BDNF (suboptimal), EC50s could not be determined; for activity class in cell survival assay, TrkB: HEK293-TrkB cells, 0.4 μM compound, with or without 0.6 nM BDNF, 48-72 h
Experimental: as §1
Cell Survival Compound Screen
as §2, §3, §4, §5, §6, §7, §8, §9, §10
Cell Survival of HEK293-TrkB Cells
HEK293-TrkB cells were treated with 0.4 μM compound with or without suboptimal (0.6 nM) levels of
BDNF and cell survival was analyzed after 48-72 hours by the alamarBlue assay. Data was
normalized to DMSO (0%) and 1.0 nM BDNF (100%). Data is represented as the average of 3-6
as §11
Cell Survival Dose Response
The most promising compounds from the screen were selected for each cell line. Cells were treated
as §12, §13, §14, §15, §16
an experiment with 3-6 replicates.

Molecule: cyclo([dN]-Lys-Val) [4c(iii)nKV]
- activity class in cell survival assay, TrkC [1]: selectively modulate cell survival through the TrkC receptors
- EC50 ([1]; read-out: EC50, cell survival of TrkC cells with suboptimal NT-3 (unit inferred), NIH3T3-TrkC cells with 0.2 nM NT-3, sigmoidal dose response, 48-72 h, alamarBlue): 8.7 µM
- NFκB activation (marker of inflammation) ([2]; biochemical experiments in the dry eye studies): decreases NFκB activation
- conjunctival goblet cell densities ([2]; murine dry eye disease model, further studies): increase conjunctival goblet cell densities
- corneal barrier function ([2]; murine dry eye disease model): increased corneal barrier function

- EC50 [3]: 10.2 µM
Molecule: CC[C@H](C)[C@@H]1NC(=O)[C@@H]2C[C@@H](CN2)NC(=O)[C@H](CO)NC(=O)[C@H](CC(N)=O)NC(=O)[C@H](CC(N)=O)NC1=O [3a(ii)]
- activity class in cell survival assay, TrkA [3]: selective TrkA agonists
- activity in the preliminary in vivo screen ([2]; murine dry eye disease model): no significant activity

- EC50 [3]: 7.1 µM
Molecule: CC[C@H](C)[C@@H]1NC(=O)[C@H](CC(N)=O)NC(=O)[C@H](C(C)C)n2cc(nn2)C[C@@H](C(=O)N[C@@H](CCCCNS(=O)(=O)c2cccc3c(N(C)C)cccc23)C(=O)O)NC(=O)[C@H](Cc2ccccc2)NC(=O)[C@H](C(C)C)NC(=O)[C@H](CO)NC(=O)[C@H](CC(N)=O)NC(=O)[C@H](CC(N)=O)NC1=O [1a(ii)ext]
- activity class in cell survival assay, TrkA [3]: selective TrkA agonists

Molecule: cyclo(DSKK) [3b(iii)]
- shape of dose-response curve, cell survival [4]: bell-shaped dose–response curve
- activity class in cell survival assay, TrkB [4]: BDNF potentiators

Molecule: M DSKKR (sidechain bridge or staple) [1b(iii)]
- shape of dose-response curve, cell survival [4]: bell-shaped dose–response curve
- activity class in cell survival assay, TrkB [4]: BDNF potentiators

Molecule: CC[C@H](C)[C@@H]1NC(=O)[C@H](CC(=O)O)NC(=O)[C@@H]2C[C@@H](CN2)NC(=O)CNC(=O)[C@H](CCCNC(=N)N)NC1=O [3c(i)]
- activity class in cell survival assay, TrkA [3]: agonist of TrkA
- EC50 [4]: 1 µM
- maximum activity, % of the maximum survival imparted by BDNF ([4]; 24 h): ~53%
- activity class in cell survival assay, TrkB [4]: potentiator of BDNF and NT-3
- maximum activity, % survival compared with that imparted by NT-3 ([1]; 24 h): ~52%
- activity class in cell survival assay, TrkC [1]: potentiator of BDNF and NT-3
- corneal barrier function ([2]; murine dry eye disease model): increased corneal barrier function
